According to patent publication US11203610B2, “2′3′ cyclic dinucleotides with phosphonate bond activating the sting adaptor protein” (INSTITUTE OF ORGANIC CHEMISTRY AND BIOCHEMISTRY ASCR, V.V.I., priority 2017, dated 2021):

Columns and labels:
WT STING [1] = biological target: T1, WT STING (Homo sapiens, UniProt Q86WV6, H232R); assay: Digitonin assay using 293T wtSTING-FL reporter cells; type: cell-based; settings: 293T wtSTING-FL cells; 30 minutes in Digitonin buffer, then 5 hours; ISRE firefly luciferase reporter; 8-point dose-response curve; read-out: Digitonin assay EC50 (μmol · l^−1) WT STING
From the text: ISRE Reporter Plasmid (pGL64.27-4xISRE)
Two complementary oligonucleotides of the sequence […] […] […] […] […] The oligonucleotides were mixed in equal molar amounts, hybridized, and cleaved by restriction endonucleases HindIII (cat. #. R0104S, NEB, Ipswich, USA) and BglII (cat. #R0144S, NEB, Ipswich, USA). Ultimately, they were ligated into plasmid pGL4.27 (cat. #E6651, Promega, Madison, USA) linearized with the same enzymes. As result the sequence with four ISRE sites was placed upstream of the minimum promoter of firefly luciferase reporter gene.
After 5 minutes incubation at room temperature (RT), 250 μL of the mixture was added dropwise to the cells in one well. Cells were incubated 36 hours at 37° C. with 5% CO2, and then detached with 0.05% Trypsin and 0.22 g/L EDTA (both cat. #L0941, Biowest, Riverside, USA).
Transfected cells were seeded onto poly-D-lysine coated six well plates at density 50,000 cells per 1 cm^2 in DMEM medium with high glucose containing 10% heat inactivated FBS, 30 g/mL blasticidin (cat. #ant-bl-05, InvivoGen, San Diego, USA), 0.06 mg/ml Penicillin G and 0.1 mg/ml Streptomycin Sulfate (both cat. #. L0018, Biowest, Riverside, USA). The medium was replenished every 3-4 days until visible colonies of cells resistant to blasticidin were formed.
Blasticidin resistant cells stably expressing WT STING were further transfected with […] plasmid following the same procedure as described above. […] Homogeneous culture of stably double transfected cells was prepared by limiting dilution of cells in 96 well plates and wells with cells were selected that originated from a single cell.
The medium was removed next day and three fold serial dilutions of compounds in Digitonin buffer containing 50 mmol·l^−1 HEPES (cat. #H3375, Sigma Aldrich, Czech Republic) pH 7.0, 100 mmol·l^−1 KCl, 3 mmol·l^−1 MgCl2, 0.1 mmol·l^−1 DTT (cat. #D0632, Sigma Aldrich, Czech Republic), 85 mmol·l^−1 Sucrose (cat. #S7903, Sigma Aldrich, Czech Republic), 0.2% BSA (cat. #A2153, Sigma Aldrich, Czech Republic), 1 mmol·l^−1 ATP (cat. #A1852, Sigma Aldrich, Czech Republic), 0.1 mmol·l^−1 GTP (cat. #G8877, Sigma Aldrich, Czech Republic), and 10 μg/mL Digitonin A (cat. #D141, Sigma Aldrich, Czech Republic) were added to the cells. The buffer was removed after 30 minutes incubation at 37° C. with 5% CO2, the cells were washed once with 100 μl of cultivation medium, and 100 μl of medium was added to each well. The plates with cells were incubated for 5 hours at 37° C. with 5% CO2, 50 μl of the medium was removed and 30 μl of ONE-Glo™ Luciferase Assay System reagent (cat. #E6120, Promega, Madison, USA) was added to each well. Luminescence was read on Synergy H1 (Biotek, Winooski, USA).
Target sequence in this assay (Q86WV6 whole entry H232R): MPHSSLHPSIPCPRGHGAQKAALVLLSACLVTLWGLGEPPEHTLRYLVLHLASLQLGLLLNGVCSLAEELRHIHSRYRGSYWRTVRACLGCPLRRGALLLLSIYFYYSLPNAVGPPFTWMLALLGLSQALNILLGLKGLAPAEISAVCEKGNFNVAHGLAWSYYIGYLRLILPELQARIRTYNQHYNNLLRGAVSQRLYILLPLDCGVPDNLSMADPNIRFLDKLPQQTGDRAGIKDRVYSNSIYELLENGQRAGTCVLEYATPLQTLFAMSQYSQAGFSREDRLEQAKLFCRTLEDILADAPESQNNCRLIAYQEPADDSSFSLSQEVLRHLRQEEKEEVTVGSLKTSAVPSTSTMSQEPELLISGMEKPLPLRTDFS

WT STING [2] = biological target: T1, WT STING; assay: Differential Scanning Fluorimetry with WT STING; type: binding; parameters: truncated human WT STING or AQ STING (amino acid residues 140-343); 8xHis (N, cleaved yes); SUMO (N, cleaved yes); made in house; host or cells: E. coli Rosetta-gami B (DE3); settings: thermal shift vs STING apoprotein, 150 μM CDN, 0.1 mg/ml truncated human WT STING, SYPRO Orange; for ΔTm at 150 µM: read-out: DSF ΔTm (° C.) WT STING
Description: (§1) WT STING and AQ STING Proteins
(§2) Purified PCR products were cleaved with restriction enzymes BamHI (cat. #R0136S, NEB, Ipswich, USA) and NotI (cat. #R0189S, NEB, Ipswich, USA) and cloned into the pSUMO vector linearized with the identical enzymes.
(§3) The resin was poured into a chromatography column, washed with 50 ml buffer A (50 mmol·l^−1 TrisCl (pH 8.0), 800 mmol·l^−1 NaCl, 3 mmol·l^−1 β-mercaptol; 10% glycerol; 20 mmol·l^−1 imidazole) and 8-His-SUMO tagged STING proteins were eluted with 15 ml buffer A containing 300 mmol·l^−1 imidazole. […] Proteins were concentrated with Amicon® Ultra-15 10 K device (cat. #UFC901008, Merck Millipore, Billerica, USA) and flash frozen in liquid N2.
(§4) Differential Scanning Fluorimetry with WT STING and AQ STING
(§5) 20 μL solutions of the reaction mixtures were pipetted in triplicates into 96 well optical reaction plates and thermal denaturation of samples were performed on real time PCR cycler (LightCycler® 480 Instrument II—Roche, Basel, Switzerland). The first derivative of the thermal denaturation curves was performed to calculate denaturing temperatures of STING—CDN complexes and STING apoproteins. The thermal shift for each CDN was calculated by subtracting the average denaturing temperature of STING apoprotein from the average denaturing temperature of STING CDN complex.
Target sequence in this assay (Q86WV6 140-343 H232R): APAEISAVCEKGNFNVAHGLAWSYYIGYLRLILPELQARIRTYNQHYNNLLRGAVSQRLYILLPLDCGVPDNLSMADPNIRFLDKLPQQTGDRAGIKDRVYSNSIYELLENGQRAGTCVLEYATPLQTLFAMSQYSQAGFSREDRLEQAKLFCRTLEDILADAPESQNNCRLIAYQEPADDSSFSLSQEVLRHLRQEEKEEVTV

AQ STING (G230A-R293Q) = biological target: T2, AQ STING (G230A-R293Q) (Homo sapiens, UniProt Q86WV6, G230A/H232R/R293Q); assay: Differential Scanning Fluorimetry with AQ STING; type: binding; settings: thermal shift vs STING apoprotein, 150 μM CDN, 0.1 mg/ml truncated human AQ STING, SYPRO Orange; for ΔTm at 150 µM: read-out: DSF ΔTm (° C.) AQ STING
T2 construct: truncated human WT STING or AQ STING (amino acid residues 140-343); 8xHis (N, cleaved yes); SUMO (N, cleaved yes); made in house; host or cells: E. coli Rosetta-gami B (DE3)
T2 sequence (Q86WV6 140-343 G230A/H232R/R293Q): as the sequence (Q86WV6 140-343 H232R) above, with G91A, R154Q counted along it
Description: as §1, §2, §3, §4, §5

Compound | EC50 (WT STING [1]) | DSF ΔTm (° C.) WT STING (WT STING [2]) | DSF ΔTm (° C.) AQ STING (AQ STING (G230A-R293Q)) | ΔTm at 150 µM (WT STING [2]) | ΔTm at 150 µM (AQ STING (G230A-R293Q))
1R,6R,8R,9R,10R,15R,17R,18S)-8,17-bis(6-amino-9H-purin-9-yl)-9-fluoro-3,12,18-trihydroxy-2,4,7,11,14,16-hexaoxa-3λ^5,12λ^5-diphosphatricyclo[13.2.1.0^6,^10]octadecane-3,12-dione [Compound 34] | 700 nM | 2.6 °C | 8.5 °C | – | –
Nc1nc2c(ncn2[C@@H]2O[C@@H]3COP(=O)(O)O[C@@H]4[C@H](O)[C@@H](COP(=O)(O)O[C@@H]2[C@@H]3O)O[C@H]4n2cnc3c(N)ncnc32)c(=O)[nH]1 [2′2′-cGAMP, reference compound] | 30 nM | 11.5 °C | 19.4 °C | – | –
Nc1ncnc2c1ncn2[C@@H]1O[C@@H]2COP(=O)(O)O[C@H]3[C@@H](O)[C@H](n4cnc5c(N)ncnc54)O[C@@H]3COP(=O)(O)O[C@H]2[C@H]1O [3′3′c-di-AMP, reference compound] | 300 nM | 2.6 °C | 9.3 °C | – | –
Nc1nc2c(ncn2[C@@H]2O[C@@H]3COP(=O)(O)O[C@H]4[C@@H](O)[C@H](n5cnc6c(=O)[nH]c(N)nc65)O[C@@H]4COP(=O)(O)O[C@H]3[C@H]2O)c(=O)[nH]1 [3′3′c-di-GMP, reference compound] | 5800 nM | 2.6 °C | 7.7 °C | – | –
Nc1ncnc2c1ncn2[C@@H]1O[C@@H]2OCP(=O)(O)O[C@@H]3[C@H](O)[C@@H](OCP(=O)(O)O[C@H]2[C@H]1O)O[C@H]3n1cnc2c(N)ncnc21 [Compound 30, (1R,6R,8R,9R,10S,15R,17R,18S)-8,17-bis(6-amino-9H-purin-9-yl)-3,9,12,18-tetrahydroxy-2,5,7,11,14,16-hexaoxa-3λ^5,12λ^5-diphosphatricyclo[13.2.1.0^6,^10]octadecane-3,12-dione] | 6700 nM | – | – | 0.8 °C | 6.4 °C
Nc1ncnc2c1ncn2[C@@H]1O[C@@H]2COP(=O)(O)O[C@@H]3[C@H](O)[C@@H](COCP(=O)(O)O[C@H]2[C@H]1O)O[C@H]3n1cnc2c(N)ncnc21 [Compound 31] | 12500 nM | – | – | 0.5 °C | 5.7 °C
Nc1ncnc2c1ncn2[C@@H]1O[C@@H]2COCP(=O)(O)O[C@@H]3[C@H](O)[C@@H](COP(=O)(O)O[C@H]2[C@H]1O)O[C@H]3n1cnc2c(N)ncnc21 [Compound 32, (1R,6S,7R,8R,10R,16R,17R,19R)-8,17-bis(6-amino-9H-purin-9-yl)-4,7,14,19-tetrahydroxy-3,5,9,12,15,18-hexaoxa-4λ^5,14λ^5-diphosphatricyclo[14.2.1.0^6,^10]nonadecane-4,14-dione] | 8000 nM | – | – | 0.5 °C | 5.3 °C
Nc1ncnc2c1ncn2[C@@H]1O[C@@H]2COP(=O)(O)O[C@@H]3[C@H](O)[C@@H](COCP(=O)(O)O[C@H]2[C@H]1F)O[C@H]3n1cnc2c(N)ncnc21 [Compound 33, (1R,6R,8R,9R,10R,16R,18R,19R)-8,18-bis(6-amino-9H-purin-9-yl)-9-fluoro-3,12,19-trihydroxy-2,4,7,11,14,17-hexaoxa-3λ^5,12λ^5-diphosphatricyclo[14.2.1.0^6,^10]nonadecane-3,12-dione] | 2600 nM | – | – | 1.6 °C | 8.3 °C

Other lines, results leading:

EC50 (WT STING [1]) | DSF ΔTm (° C.) WT STING (WT STING [2]) | DSF ΔTm (° C.) AQ STING (AQ STING (G230A-R293Q)) | ΔTm at 150 µM (WT STING [2]) | ΔTm at 150 µM (AQ STING (G230A-R293Q)) | Compound
180 nM | – | – | 5.8 °C | 14.2 °C | Nc1nc2c(ncn2[C@@H]2C[C@@H]3COP(=O)(O)O[C@@H]4[C@@H](OCP(=O)(O)O[C@@H]2[C@@H]3O)O[C@@H](n2cnc3c(N)ncnc32)[C@@H]4O)c(=O)[nH]1 [Compound 36, (1S,6R,8R,9R,10S,15R,17R,18R)-17-(2-amino-6-oxo-6,9-dihydro-1H-purin-9-yl)-8-(6-amino-9H-purin-9-yl)-3,9,12,18-tetrahydroxy-2,5,7,11,13-pentaoxa-3λ^5,12λ^5-diphosphatricyclo[13.2.1.0^6,10]octadecane-3,12-dione]
50 nM | – | – | 8.5 °C | 16.5 °C | Nc1ncnc2c1ncn2[C@@H]1O[C@@H]2OCP(=O)(O)O[C@@H]3[C@H](O)[C@@H](COP(=O)(O)O[C@H]2[C@H]1O)O[C@H]3n1cnc2c(=O)[nH]cnc21 [Compound 37, (1R,6R,8R,9R,10S,15R,17R,18R)-8-(6-amino-9H-purin-9-yl)-3,9,12,18-tetrahydroxy-17-(6-oxo-6,9-dihydro-1H-purin-9-yl)-2,5,7,11,13,16-hexaoxa-3λ^5,12λ^5 diphosphatricyclo[13.2.1.0^6,10]octadecane-3,12-dione]
50 nM | – | – | 8.2 °C | 16.2 °C | Nc1nc2c(ncn2[C@@H]2O[C@@H]3COP(=O)(O)O[C@@H]4[C@@H](OCP(=O)(O)O[C@@H]2C3)O[C@@H](n2cnc3c(N)ncnc32)[C@@H]4O)c(=O)[nH]1 [Compound 38, (1R,6R,8R,9R,10S,15S,17R)-17-(2-amino-6-oxo-6,9-dihydro-1H-purin-9-yl)-8-(6-amino-9H-purin-9-yl)-3,9,12-trihydroxy-2,5,7,11,13,16-hexaoxa-3λ^5,12λ^5-diphosphatricyclo[13.2.1.0^6,10]octadecane-3,12-dione]
80 nM | – | – | 11 °C | 17.2 °C | Nc1nc2c(ncn2[C@@H]2O[C@@H]3COP(=O)(S)O[C@@H]4[C@@H](OCP(=O)(O)O[C@@H]2[C@@H]3O)O[C@@H](n2cnc3c(N)ncnc32)[C@@H]4O)c(=O)[nH]1 (stereo partly drawn) [Compound 39, (1R,6R,8R,9R,10S,15R,17R,18R)-17-(2-amino-6-oxo-6,9-dihydro-1H-purin-9-yl)-8-(6-amino-9H-purin-9-yl)-3,9,18-trihydroxy-12-sulfanyl-2,5,7,11,13,16-hexaoxa-3λ^5,12λ^5-diphosphatricyclo[13.2.1.0^6,10]octadecane-3,12-dione]
